Measured values as given in patent publication US20250129101A1, “Compound, Pharmaceutical Composition Comprising the Same and Method for Treating Cancer Using the Same” (NATIONAL TSING HUA UNIVERSITY, priority 2023, published 2025).

Legend:
[1] = tested on: MDA-MB-231 cells; test: Cell validation: cytotoxicity in MDA-MB-231 cells (CellTiter-Glo); assay type: cell-based; settings: cytotoxicity in MDA-MB-231 cells; for IC50: Homo sapiens
Description: (§1) The in vitro validation was performed by measuring KIF2C kinesin activity using malachite green-based phosphate colorimetric assay (BioVision). […] The microtubules from porcine brain tubulin (Cytoskeleton) or purified from HEK293 cells in Free-style medium (293Fs) were dissolved in the BRB80 buffer (80 mM PIPES pH 6.8, 1 mM EGTA, 1 mM MgCl2, 1 mM GTP, 1 mM DTT, and 10% DMSO) at 37° C. for 2 hr. Phosphates released from kinesin-mediated ATP hydrolysis was measured by adding 30 μL of the phosphate colorimetric reagent (BioVision), incubated for 10 min, and then measured with absorbance at 650 nm. […] The cell validation was performed by measuring cytotoxicity in MDA-MB-231 cells. The cells were cultured in a 96-well plate at a confluence of 2000 cells/well with indicates compounds for specific days. When the time was up, the culture medium in the plate was aspirated and replaced with a prepared CellTiter-Glo reagent (Promega)/DMEM mixture (1:1 mix of CellTiter-Glo reagent and serum-supplemented DMEM). After incubation for 10 min, the luminescence was measured with an ELISA plate reader to determine the cell viability.
The cancer cells were cultured in a 96-well plate at a confluence of 1000-2000 cells/well with indicated drugs for specific days. When the time was up, the culture medium in the plate was aspirated and replaced with a prepared CellTiter-Glo reagent/DMEM mixture (1:1 mix of CellTiter-Glo reagent and serum-supplemented DMEM). After incubation for 10 min, the luminescence (proportional to the number of living cells) was measured with an ELISA plate reader to determine the cell viability.

[2] = molecular target: T1, KIF2C (Homo sapiens, UniProt Q99661); test: In vitro validation: KIF2C kinesin activity, malachite green-based phosphate colorimetric assay; assay type: biochemical; settings: concentration that inhibits 50% of KIF2C activity
T1 construct: KIF2C (216-598 a.a.); 6xHis (C); made in house; host or cells: E. coli BL21 (DE3), pET-28a
T1 sequence (Q99661 216-598): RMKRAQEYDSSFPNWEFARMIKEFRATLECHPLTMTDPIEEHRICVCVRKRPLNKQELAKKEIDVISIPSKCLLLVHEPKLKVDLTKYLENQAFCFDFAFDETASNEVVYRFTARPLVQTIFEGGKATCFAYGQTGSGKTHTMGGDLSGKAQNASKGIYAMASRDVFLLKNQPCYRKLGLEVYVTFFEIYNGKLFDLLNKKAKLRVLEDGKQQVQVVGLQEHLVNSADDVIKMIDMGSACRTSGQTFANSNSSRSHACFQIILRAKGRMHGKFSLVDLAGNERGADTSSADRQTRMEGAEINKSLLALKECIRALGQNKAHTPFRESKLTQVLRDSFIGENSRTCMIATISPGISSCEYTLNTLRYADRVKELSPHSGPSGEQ
Description: as §1
In vitro kinesin activity was measured using malachite green-based phosphate colorimetric assay (BioVision). […] The microtubules from porcine brain tubulin (Cytoskeleton) or purified from HEK293 cells in Free-style medium (293Fs) were dissolved in the BRB80 buffer (80 mM PIPES pH 6.8, 1 mM EGTA, 1 mM MgCl2, 1 mM GTP, 1 mM DTT, and 10% DMSO) at 37° C. for 2 hr. Phosphates released from kinesin-mediated ATP hydrolysis was measured by adding 30 μL of the phosphate colorimetric reagent (BioVision), incubated for 10 min, and then measured with absorbance at 650 nm.
Constructs of sN+M regions of KIF2C (216-598 a.a.), KIF2A (181-562 a.a.) and KIF2B (171-553 a.a.) with C-terminal 6×His tag were subcloned into pET-28a vector and expressed in BL21 (DE3) E. coli cells (Novartis) cultured in Luria-Bertani medium supplemented with 50 ug/mL kanamycin at 37° C. After induction with 0.8 mM IPTG for 18 hr at 20° C., the cells were pelleted by centrifugation at 6000 rpm for 30 min at 10° C. The collected pellets were resuspended in 30 mL of buffer A (20 mM Tris-HCl pH 7.5, 500 mM NaCl, 10 mM imidazole, 1% CHAPS, and 1 mM PMSF) and next subjected to a high-pressure homogenizer (EmulsiFlex-C3) for cell lysis. After removing the cell debris by centrifugation at 13000 rpm for 30 min at 10° C., the recombinant Kinesin-13 in the supernatant was purified using nickel affinity chromatography. Firstly, the supernatant was applied to the Ni-NTA column (GE Healthcare) pre-equilibrated with buffer A. Secondly, the column was washed with 10× column volumes of buffer A to remove the unwanted proteins. The washed column was then eluted with 10× column volumes of buffer containing increasing concentrations of imidazole (40, 100, 300, 1000 mM), and the majority of the recombinant Kinesin-13 protein was eventually obtained in a fraction of 300 mM imidazole. The fractions containing the recombinant Kinesin-13 were subsequently concentrated in the buffer B (20 mM Tris-HCl pH 7.5, 10 mM imidazole, 50 mM NaCl, 2 mM DTT) using an Amicon® Ultra filter (Millipore) and subjected to cation exchange column (Capto S, GE Healthcare) for further purification. The recombinant Kinesin-13 was then eluted in elution buffer (20 mM Tris-HCl pH 7.5 and 2 mM DTT) containing 400 mM of NaCl and stored at −80° C. for long-term storage.

Question: Which IC50 [1] does the source give for `CC1=C(C(=O)OC(C)C)C(c2ccc(Cl)cc2)n2c(s/c(=C\c3ccc(OCc4cnn[nH]4)cc3)c2=O)=N1` (stereo not shown) [37S0 (120), isopropyl (Z)-2-(4-((1H-1,2,3-triazol-5-yl)methoxy)benzylidene)-5-(4-chlorophenyl)-7-methyl-3-oxo-2,3-dihydro-5H-thiazolo[3,2-a]pyrimidine-6-carboxylate] here?
Answer: > 50 µM

Question: And the EC50 [2]?
Answer: > 100 µM

Question: Which IC50 [1] does the source give for `CC1=C(C(=O)OC(C)C)C(c2ccc(Cl)cc2)n2c(s/c(=C\c3ccc(OCC#N)cc3)c2=O)=N1` (stereo not shown) [38S0 (117), isopropyl (Z)-5-(4-chlorophenyl)-2-(4-(cyanomethoxy)benzylidene)-7-methyl-3-oxo-2,3-dihydro-5H-thiazolo[3,2-a]pyrimidine-6-carboxylate] here?
Answer: > 50 µM

Question: What about the EC50 [2] of the same compound?
Answer: > 100 µM

Question: How did the IC50 [1] turn out when `CC1=C(C(=O)OC(C)C)C(c2ccc(Cl)cc2)n2c(s/c(=C\c3ccc(OCCCO)cc3)c2=O)=N1` (stereo not shown) [39S0 (118), isopropyl (Z)-5-(4-chlorophenyl)-2-(4-(3-hydroxypropoxy)benzylidene)-7-methyl-3-oxo-2,3-dihydro-5H-thiazolo[3,2-a]pyrimidine-6-carboxylate] was run?
Answer: > 50 µM

Question: And the EC50 [2]?
Answer: > 100 µM

Question: What does the source list for `CC1=C(C(=O)OC(C)C)C(c2ccc(Br)cc2)n2c(s/c(=C\c3ccc(OCC(=O)O)cc3)c2=O)=N1` (stereo not shown) [40S0 (40), (4-(((2Z)-5-(4-bromophenyl)-7-methyl-3-oxo-6-((propan-2-yloxy)carbonyl)-5H-[1,3]thiazolo[3,2-a]pyrimidin-2(3H)-ylidene)methyl)phenoxy)acetic acid]?
Answer: IC50 [1]: > 50 µM; EC50 [2]: < 20 µM

Question: Which results are given for `COc1ccc(C2C(C(=O)OC(C)C)=C(C)N=c3s/c(=C\c4ccc(OCC(=O)O)cc4)c(=O)n32)cc1` (stereo not shown) [41S0 (60), (Z)-2-(4-((6-(isopropoxycarbonyl)-5-(4-methoxyphenyl)-7-methyl-3-oxo-5H-thiazolo[3,2-a]pyrimidin-2(3H)-ylidene)methyl)phenoxy)acetic acid]?
Answer: IC50 [1]: > 50 µM; EC50 [2]: < 50 µM

Question: Which IC50 [1] does the source give for `COc1ccc(C2C(C(=O)OC(C)C)=C(C)N=c3s/c(=C\c4ccc(OCC(=O)N5CCN(C)CC5)cc4)c(=O)n32)cc1` (stereo not shown) [42S0 (61), isopropyl (Z)-5-(4-methoxyphenyl)-7-methyl-2-(4-(2-(4-methylpiperazin-1-yl)-2-oxoethoxy)benzylidene)-3-oxo-2,3-dihydro-5H-thiazolo[3,2-a]pyrimidine-6-carboxylate] here?
Answer: 20 to 50 µM

Question: What about the EC50 [2] of the same compound?
Answer: > 100 µM

Question: Which “Cell validation (IC50)” value [1] does the source give for `COc1ccc(C2C(C(=O)OC(C)C)=C(C)N=c3s/c(=C\c4ccc(OCC(=O)N5CCC(N6CCN(C)CC6)CC5)cc4)c(=O)n32)cc1` (stereo not shown) [43S0 (62), isopropan-2-yl (2Z)-5-(4-chlorophenyl)-7-methyl-2-(4-(2-(4-(4-methylpiperazin-1-yl)piperidin-1-yl)-2-oxoethoxy)benzylidene)-3-oxo-2,3-dihydro-5H-[1,3]thiazolo[3,2-a]pyrimidine-6-carboxylate] here?
Answer: + + + +

Question: What about the EC50 [2] of the same compound?
Answer: 50 to 100 µM

Question: Which results are given for `CCOC(=O)C1=C(C)N=c2s/c(=C\c3ccc(OCC(=O)OC)cc3)c(=O)n2[C@@H]1c1ccc(Cl)cc1` [44S0 (128)]?
Answer: IC50 [1]: > 50 µM; EC50 [2]: > 100 µM

Question: Which results are given for `CCOC(=O)C1=C(C)N=c2s/c(=C\c3ccc(OCC(=O)OC)cc3)c(=O)n2[C@H]1c1ccc(Cl)cc1` [45S0 (129)]?
Answer: IC50 [1]: > 50 µM; EC50 [2]: > 100 µM

Question: `COC(=O)COc1ccc(/C=c2\sc3n(c2=O)C(c2ccc(Cl)cc2)C(C(=O)OC(C)C)=C(C)N=3)cc1` (stereo not shown) [46S0 (25), isopropyl (Z)-5-(4-chlorophenyl)-2-(4-(2-methoxy-2-oxoethoxy)benzylidene)-7-methyl-3-oxo-2,3-dihydro-5H-thiazolo[3,2-a]pyrimidine-6-carboxylate] was tested. Which IC50 [1] did it give?
Answer: > 50 µM

Question: And the EC50 [2]?
Answer: > 100 µM

Question: Which IC50 [1] does the source give for `CC1=C(C(=O)OC(C)C)C(c2ccc(Cl)cc2)n2c(s/c(=C\c3ccc(OC(C)(C)C(=O)O)cc3)c2=O)=N1` (stereo not shown) [47S0 (107), (Z)-2-(4-((5-(4-chlorophenyl)-6-(isopropoxycarbonyl)-7-methyl-3-oxo-5H-thiazolo[3,2-a]pyrimidin-2(3H)-ylidene)methyl)phenoxy)-2-methylpropanoic acid] here?
Answer: > 50 µM

Question: What about the EC50 [2] of the same compound?
Answer: > 100 µM
